Data: the NIST ThermoML archive (doi:10.1016/j.jct.2006.07.012)
Numbers after ± are expanded uncertainties.

Conditions: Fluid (supercritical or subcritical phases), Bellows volumetry

CCC [propane]
Conditions	mass density [kg/m3]
280 K, 581.4 kPa	519.39 ± 0.94
280 K, 604.8 kPa	519.45 ± 0.94
280 K, 628.1 kPa	519.49 ± 0.96
280 K, 651.4 kPa	519.57 ± 0.97
280 K, 674.7 kPa	519.62 ± 0.97
280 K, 698 kPa	519.69 ± 0.94
280 K, 721.4 kPa	519.75 ± 0.94
300 K, 1006 kPa	489.83 ± 0.88
300 K, 1029.4 kPa	489.89 ± 0.88
300 K, 1052.6 kPa	489.98 ± 0.88
300 K, 1075.9 kPa	490.05 ± 0.88
300 K, 1099.3 kPa	490.1 ± 0.88
300 K, 1122.6 kPa	490.2 ± 0.9
300 K, 1145.9 kPa	490.3 ± 0.88
320 K, 1611.1 kPa	455.49 ± 0.82
320 K, 1634.4 kPa	455.61 ± 0.82
320 K, 1657.6 kPa	455.75 ± 0.82
320 K, 1680.9 kPa	455.88 ± 0.84
320 K, 1704.2 kPa	455.99 ± 0.84
320 K, 1727.5 kPa	456.09 ± 0.82
320 K, 1750.7 kPa	456.24 ± 0.82
340 K, 2447.1 kPa	412.74 ± 0.74
340 K, 2470.3 kPa	412.98 ± 0.74
340 K, 2493.4 kPa	413.23 ± 0.74
340 K, 2516.6 kPa	413.48 ± 0.76
340 K, 2539.8 kPa	413.66 ± 0.76
340 K, 2563 kPa	413.88 ± 0.75
340 K, 2586.2 kPa	414.08 ± 0.74
360 K, 3558 kPa	346.61 ± 0.64
360 K, 3558.8 kPa	346.43 ± 0.64
360 K, 3566.8 kPa	346.83 ± 0.63
360 K, 3569.1 kPa	347.17 ± 0.63
360 K, 3569.9 kPa	346.97 ± 0.64
360 K, 3580.3 kPa	347.61 ± 0.63
360 K, 3591.6 kPa	348.04 ± 0.63
360 K, 3592.2 kPa	347.94 ± 0.63
360 K, 3602.8 kPa	348.46 ± 0.64
360 K, 3614 kPa	348.96 ± 0.69
360 K, 3614.5 kPa	348.91 ± 0.63
360 K, 3622.6 kPa	349.31 ± 0.63
360 K, 3625.2 kPa	349.4 ± 0.63
360 K, 3636.5 kPa	349.82 ± 0.71
360 K, 3636.9 kPa	349.82 ± 0.63
360 K, 3647.8 kPa	350.25 ± 0.65
360 K, 3659 kPa	350.7 ± 0.65
360 K, 3659.4 kPa	350.7 ± 0.65
360 K, 3670.3 kPa	351.13 ± 0.65
360 K, 3678.7 kPa	351.52 ± 0.65
360 K, 3681.8 kPa	351.59 ± 0.65
360 K, 3704.3 kPa	352.44 ± 0.8
360 K, 3726.8 kPa	353.19 ± 0.65
365 K, 3897.8 kPa	317.84 ± 0.66
365 K, 3903 kPa	318.4 ± 0.65
365 K, 3923.7 kPa	320.49 ± 0.64
365 K, 3944.7 kPa	322.39 ± 0.63
365 K, 3965.9 kPa	324.14 ± 0.63
365 K, 3987.2 kPa	325.86 ± 0.62
365 K, 4008.7 kPa	327.39 ± 0.61
365 K, 4030.4 kPa	328.84 ± 0.63
